This is an account of results in BindingDB's records for doi:10.7270/Q23T9FMP (The Scripps Research Institute Molecular Screening Center, 2007).

The target of the assay is Steroidogenic factor 1 (Homo sapiens, UniProt Q13285). The assay is described as follows: SF-1 activators, concentration-response, dose response, cell-based, CHO-K1, Gal4-SF-1 LBD, luciferase luminescence (AID 692).
The mark [1] stands for this setting: inactive by the depositor's call.

Structures can show the parent of a compound that is named as a salt.

Steroidogenic factor 1, sequence (Q13285 whole entry, the tested form may be a part): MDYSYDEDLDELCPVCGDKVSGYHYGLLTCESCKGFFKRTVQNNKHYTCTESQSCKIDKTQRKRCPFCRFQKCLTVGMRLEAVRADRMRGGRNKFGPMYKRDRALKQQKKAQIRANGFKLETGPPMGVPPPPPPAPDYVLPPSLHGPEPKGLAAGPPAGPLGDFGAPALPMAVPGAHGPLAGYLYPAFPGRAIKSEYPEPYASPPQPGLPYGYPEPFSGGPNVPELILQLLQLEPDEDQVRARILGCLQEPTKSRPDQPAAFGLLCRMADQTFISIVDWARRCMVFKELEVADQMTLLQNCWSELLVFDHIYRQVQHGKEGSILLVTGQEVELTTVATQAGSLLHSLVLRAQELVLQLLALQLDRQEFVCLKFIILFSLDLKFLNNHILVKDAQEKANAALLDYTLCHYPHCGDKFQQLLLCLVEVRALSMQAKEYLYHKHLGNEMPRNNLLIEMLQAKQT

Regarding `Cc1ccc(C(=O)Nc2ncc(Cc3ccccc3)s2)o1` [5-Methyl-furan-2-carboxylic acid (5-benzyl-thiazol-2-yl)-amide], a half-maximal effect (EC50) was put at 168 nM.
Molecule `Cc1ccc(C(=O)Nc2ncc(Cc3ccc(F)cc3)s2)o1` [5-Methyl-furan-2-carboxylic acid [5-(4-fluoro-benzyl)-thiazol-2-yl]-amide] showed an EC50 of 414 nM.
For `O=C(Nc1nccs1)c1ccc(COc2ccc(F)cc2)o1` [5-[(4-fluoranylphenoxy)methyl]-N-(1,3-thiazol-2-yl)furan-2-carboxamide], a half-maximal response under setting [1] (EC50) required 11400 nM.
In the case of `Nc1c(C(=O)NCc2ccco2)nnn1-c1ccccc1` [5-amino-N-(2-furanylmethyl)-1-phenyl-4-triazolecarboxamide], the midpoint of the response, the EC50, lay at 2670 nM.
On the same count and under the same terms, in the case of `CC1(C)Cc2c(sc(NC(=O)c3ccc(Br)o3)c2C#N)CO1` [5-bromanyl-N-(3-cyano-5,5-dimethyl-4,7-dihydrothieno[2,3-c]pyran-2-yl)furan-2-carboxamide] it was more than 407 nM; in that of `COc1ccc(OC)c2sc(NC(=O)c3ccc(Br)s3)nc12` [5-bromanyl-N-(4,7-dimethoxy-1,3-benzothiazol-2-yl)thiophene-2-carboxamide], more than 99000 nM; in that of `O=C(Nc1cccc(-c2nnc(-c3ccccc3)o2)c1)c1ccc(Br)o1` [5-bromanyl-N-[3-(5-phenyl-1,3,4-oxadiazol-2-yl)phenyl]furan-2-carboxamide], 4100 nM.
Still for that read-out and setting: the same measure for `CCc1ccc(C(=O)NCc2cccs2)s1` [5-ethyl-N-(2-thenyl)thiophene-2-carboxamide]: 3230 nM; for `c1ccc(-c2cnc(CSc3nnc4ccccn34)o2)cc1` [5-phenyl-2-([1,2,4]triazolo[4,3-a]pyridin-3-ylsulfanylmethyl)-1,3-oxazole]: 957 nM.
`CCN(CC)c1ccc(-n2cc3c(=O)n(C)c(=O)n(C)c3c2)cc1` [6-(4-Diethylamino-phenyl)-1,3-dimethyl-1,6-dihydro-pyrrolo[3,4-d]pyrimidine-2,4-dione] returned an EC50 under setting [1] of 12400 nM.
`COc1ccc(-c2cn3ccsc3n2)cc1` [6-(4-methoxyphenyl)imidazo[2,1-b][1,3]thiazole] came in with an EC50 of 380 nM.
Still for that read-out and setting: in the case of `CCOC(=O)c1cnc2c(-c3ccccc3)cnn2c1N` [7-amino-3-phenyl-6-pyrazolo[1,5-a]pyrimidinecarboxylic acid ethyl ester] it was 183 nM; in that of `COCC(C)NC(=O)c1noc2c1CCc1cc(OC)ccc1-2` (centres undefined) [7-methoxy-N-(1-methoxypropan-2-yl)-4,5-dihydrobenzo[g][1,2]benzoxazole-3-carboxamide], more than 1220 nM.
The same measure, in the same setting: in the case of `CCc1nc(Nc2ccc3nccnc3c2)c2oc3ccccc3c2n1` [(2-ethylbenzofuro[3,2-d]pyrimidin-4-yl)-quinoxalin-6-yl-amine;hydrochloride] it was more than 99000 nM; in that of `CC(=Nc1cccc(O)c1)c1sc2ccccc2c1O` [(2Z)-2-[1-(3-hydroxyanilino)ethylidene]-1-benzothiophen-3-one], 4470 nM; in that of `COC(=O)CSc1nc2cc(C)ccc2cc1C#N` [(3-Cyano-7-methyl-quinolin-2-ylsulfanyl)-acetic acid methyl ester], 746 nM.
Still for that read-out and setting: the same measure for `Cc1ccc(C2C(C(=O)c3cnn(-c4ccccc4)c3C)C(=O)C(=O)N2CCN(C)C)o1` (centres undefined) [(4E)-1-[2-(dimethylamino)ethyl]-4-[hydroxy-(5-methyl-1-phenyl-4-pyrazolyl)methylidene]-5-(5-methyl-2-furanyl)pyrrolidine-2,3-dione]: 3590 nM.
Molecule `CC(=NC1CCCC1)c1c(C)[nH]n(-c2nc3ccccc3s2)c1=O` [(4Z)-2-(1,3-benzothiazol-2-yl)-4-[1-(cyclopentylamino)ethylidene]-5-methylpyrazol-3-one] had a concentration for a half-maximal effect (EC50) of 741 nM.
Still for that read-out and setting: in the case of `Cn1c(-c2ccc3c(c2)OCO3)cnc1NCc1ccccc1` [(5-Benzo[1,3]dioxol-5-yl-1-methyl-1H-imidazol-2-yl)-benzyl-amine] it was more than 11000 nM; in that of `Fc1ccc2nc(Nc3nc4c(s3)CCCC4)sc2c1` [(6-fluoro-1,3-benzothiazol-2-yl)-(4,5,6,7-tetrahydro-1,3-benzothiazol-2-yl)amine], 1010 nM.
For `CC(=N)C(C#N)C(=O)CSc1ccc2c(c1)OCCO2` (centres undefined) [(E)-3-amino-2-[2-(2,3-dihydro-1,4-benzodioxin-6-ylsulfanyl)acetyl]but-2-enenitrile], the concentration for a half-maximal effect (EC50) was 2890 nM.
`O=C(Nc1ccc(NC(=O)c2cccs2)cn1)c1ccco1` [Furan-2-carboxylic acid {5-[(thiophene-2-carbonyl)-amino]-pyridin-2-yl}-amide]: it took 5540 nM to reach a half-maximal effect (EC50).
On the same count and under the same terms, in the case of `CC(=O)Nc1ccc(-c2cc3ccccc3o2)cc1` [MLS000036584] it was 444 nM.
`O=C(Nc1nnc(C2CCCCC2)s1)c1ccco1` [MLS000039439] yielded an EC50 of more than 1220 nM.
`CC(=O)c1c(C)[nH]c(C(=O)NCCc2cccc(C)c2)c1C` [MLS000045238] came in with an EC50 of more than 3670 nM.
Still for that read-out and setting: in the case of `O=C(NCC1CCCO1)c1coc2nc3ccccc3nc12` (centres undefined) [MLS000046703] it was more than 99000 nM.
Same read-out and setting: the same measure for `O=C(Nc1ccc2c(c1)OCO2)c1ccc(COc2ccc3c(c2)CCC3)o1` [MLS000048173]: more than 407 nM.
On the same count and under the same terms, in the case of `COc1ccc(CCC(=O)Nc2ccc(-c3noc(-c4ccc(OC)c(OC)c4)n3)cc2)cc1` [MLS000049572] it was 1180 nM; in that of `O=C(Nc1ccc(-c2cn3ccsc3n2)cc1)C1CC1` [MLS000053249], 1190 nM.
`COc1ccc(NC(=O)c2ccc3c(c2)OCO3)cc1Cl` [MLS000053302] gave an EC50 of 589 nM.
Still for that read-out and setting: the same measure for `CS(=O)(=O)c1ccc2nc(NC(=O)C3COc4ccccc4O3)sc2c1` (centres undefined) [MLS000056123]: 7740 nM; for `O=C(Nc1ccc(CN2CCOCC2)cc1)c1cc2ccccc2o1` [MLS000062478]: 720 nM.
Same read-out and setting: the same measure for `CC(C)(C)c1cc(NC(=O)C2CCCO2)no1` (centres undefined) [MLS000065845]: 2820 nM.
Molecule `O=C(NCc1ccco1)c1cc2c(s1)CCCCC2` [MLS000065859] gave an EC50 of 3100 nM.
Same read-out and setting: the same measure for `CCOC(=O)c1cc2cc(OC)ccc2[nH]1` [MLS000071430]: 1380 nM; for `C=CCn1c(-c2ccccc2)c[nH]c1=S` [MLS000071728]: 1220 nM.
Same read-out and setting: the same measure for `CCOc1ccc(OCC)c(NC(=O)CSc2nc3c(c(=O)n(C)c(=O)n3C)n2C(C)C)c1` [MLS000072726]: more than 11000 nM.
The same measure, in the same setting: in the case of `Cc1cnc(NC(=O)CSc2nnc(-c3ccccc3)o2)s1` [MLS000077990] it was 1920 nM; in that of `CCOC(=O)c1[nH]c2ccc(C)cc2c1N` [MLS000079379], 544 nM.
Molecule `Nc1nc2c(s1)CCc1c-2cnn1-c1ccccc1` [MLS000085948] gave an EC50 of 760 nM.
As for `Cc1cc(C(=O)Nc2sc3c(c2C#N)CCC(C(C)(C)C)C3)no1` (centres undefined) [MLS000087312], the EC50 under setting [1] was 10100 nM.
Take `CN(C)C=Nc1ncnc2c1cnn2-c1ccc(C(F)(F)F)cn1` [MLS000087855]: the EC50 is more than 99000 nM.
On to `CCCc1cc(C(=O)Nc2ccccc2SC)no1` [MLS000116378], for which the EC50 worked out at 4430 nM.
The same measure, in the same setting: in the case of `CC(=O)c1cccc(NC(=O)c2cnn3ccccc23)c1` [MLS000118777] it was 2200 nM.
`CCOc1ccc(OCC)c(NC(=O)C2CCCN2S(=O)(=O)c2cccc3cccnc23)c1` (centres undefined) [MLS000119093] displayed an EC50 under setting [1] of 12200 nM.
Turning to `COc1ccccc1Nc1nc2ccccc2[nH]1` [N-(2-methoxyphenyl)-1H-benzimidazol-2-amine], a half-maximal response (EC50) required 6470 nM.
Same read-out and setting: in the case of `CC(=O)Nc1ccc(-c2nc3c(C)cccc3[nH]2)cc1` [SMR000001134] it was 1460 nM; in that of `Cc1cc2n(n1)C(c1ccc(N(C)C)cc1)Nc1ccccc1-2` (centres undefined) [SMR000015202], more than 11000 nM.
With `CC1(C)CC(=O)C(=CNc2ccccc2)C(=O)C1` [SMR000054233], the EC50 came to 6830 nM.
Same read-out and setting: in the case of `O=c1[nH]c2ccccc2nc1-c1cccs1` [SMR000068248] it was 7840 nM; in that of `CN(C)C(=O)CSc1nnc(C23CC4CC(CC(C4)C2)C3)o1` [SMR000077996], 6660 nM.
The molecule `CCCCC1CCC(c2nc(-c3ccccn3)no2)CC1` (centres undefined) [SMR000105468] yielded an EC50 of 543 nM.
Still for that read-out and setting: in the case of `CC1(C)CC(=O)C(=CNc2ccc3[nH]ncc3c2)C(=O)C1` [SMR000111453] it was more than 11000 nM; in that of `COCCn1c(C)cc(C(=O)COC(=O)C23CC4CC(CC(O)(C4)C2)C3)c1C` [[2-[1-(2-methoxyethyl)-2,5-dimethylpyrrol-3-yl]-2-oxoethyl] 3-hydroxyadamantane-1-carboxylate], 813 nM.
